The target of experiment [1] is T1, human KDR (Homo sapiens, UniProt P35968).
T1 construct: expressed in transfected cells; host or cells: NIH 3T3 cells (Sawano A et al., Cell Growth & Differentiation 7, 213-221 (1996))
Kind of experiment: Inhibitory activity against KDR phosphorylation by ELISA. The settings on record: NIH 3T3 cells transfected with human KDR, VEGF 100 ng/ml. In kind it is cell-based. As to the method: Measurement of Inhibitory Activity Against KDR Phosphorylation by ELISA
NIH 3T3 cells (Sawano A et al., Cell Growth & Differentation, 7, 213–221 (1996), “Flt-1 but not KDR/Flk-1 tyrosine kinase is a receptor for placenta growth factor, which is related to vascular endothelial growth factor”) prepared by transfection of human KDR were cultured in a DMEM medium containing 10% fetal calf serum (purchased from GIBCO BRL) within a 5% carbon dioxide incubator until 50 to 70% confluent. The harvested cells were inoculated into wells, containing the same medium, in a collagen-type one-coat 96-well flat-bottom plate in an amount of 1.5×10^4 per well, followed by cultivation at 37° C. overnight. The medium was then replaced by a DMEM medium containing 0.1% fetal calf serum. A solution of the test compound in dimethyl sulfoxide was added to each well, and the cultivation was continued at 37° C. for additional one hr. A human recombinant vascular endothelial growth factor (hereinafter abbreviated to “VEGF”) was added to a final concentration of 100 ng/ml, and the stimulation of cells was carried out at 37° C. for 2 min. The medium was removed, the cells were washed with phosphate buffered saline (pH 7.4), and 50 μl of a solubilization buffer (20 mM HEPES (pH 7.4), 150 mM NaCl, 0.2% Triton X-100, 10% glycerol, 5 mM sodium orthovanadylate, 5 mM disodium ethylenediaminetetraacetate, and 2 mM Na4P2O7) was then added thereto. The mixture was shaken at 4° C. for 2 hr to prepare a cell extract.
Separately, phosphate buffered saline (50 μl, pH 7.4) containing […] of anti-phospho-tyrosine antibody (PY20; purchased from Transduction Laboratories) was added to a microplate for ELISA (Maxisorp; purchased from NUNC), followed by standing at 4° C. overnight to form a solid phase on the wells. After washing of the plate, 300 μl of a blocking solution was added, followed by standing at room temperature for 2 hr to perform blocking. After washing, the whole quantity of the cell extract was transferred to the wells, and the plate was then allowed to stand at 4° C. overnight. After washing, an anti-KDR antibody (purchased from Santa Cruz) was allowed to react at room temperature for one hr, and, after washing, a peroxidase-labeled anti-rabbit Ig antibody (purchased from Amersham) was allowed to react at room temperature for one hr. After washing, a chromophoric substrate for peroxidase (purchased from Sumitomo Bakelite Co., Ltd.) was added thereto to initiate a reaction. After a suitable level of color development, a reaction termination solution was added to stop the reaction, and the absorbance at 450 nm was measured with a microplate reader. The KDR phosphorylation activity for each well was determined by presuming the absorbance with the addition of VEGF and without the addition of the medicament to be 100% KDR phosphorylation activity and the absorbance without the medicament and VEGF to be 0% KDR phosphorylation activity. The concentration of the test compound was varied on several levels, the inhibition (%) of KDR phosphorylation was determined for each case, and the concentration of the test compound necessary for inhibiting 50% of KDR phosphorylation (IC50) was calculated.

The subject of experiment [2] is Human glioma cells GL07. Kind of experiment: Antitumor effect on human glioma cells (GL07) transplanted into nude mice. The format is in vivo. The following applies: GL07, oral, 20 mg/kg once a day for 9 days; for inhibition in vivo at 20 mg/kg: Mus musculus, Glioma cell, 216 h, read-out: TGIR, % (tumor growth inhibition rate). As to the method: Antitumor Effect on Human Glioma Cells (GL07)
Human glioma cells GL07 (obtained from Central Laboratories for Experimental Animals) were transplanted into nude mice. When the tumor volume became about 100 mm^3, the mice were grouped. In this case, grouping was carried out so that each group consisted of four mice and the average tumor volume was even among the groups. The test compound was orally or intraperitoneally administered at a dose of 20 mg/kg to the test groups every day once a day for 9 days, while the medium was administered to the control group in the manner as in the test groups. The tumor growth inhibition rate (TGIR) was calculated as follows: The tumor growth inhibition rate (TGIR)=(1−Tx/Cx)×100 wherein Cx represents the volume of tumor at day x for the control group when the tumor volume at the day of the start of the administration was presumed to be 1; and Tx represents the volume of tumor for test compound administration groups.

T1 sequence (P35968 20-1356): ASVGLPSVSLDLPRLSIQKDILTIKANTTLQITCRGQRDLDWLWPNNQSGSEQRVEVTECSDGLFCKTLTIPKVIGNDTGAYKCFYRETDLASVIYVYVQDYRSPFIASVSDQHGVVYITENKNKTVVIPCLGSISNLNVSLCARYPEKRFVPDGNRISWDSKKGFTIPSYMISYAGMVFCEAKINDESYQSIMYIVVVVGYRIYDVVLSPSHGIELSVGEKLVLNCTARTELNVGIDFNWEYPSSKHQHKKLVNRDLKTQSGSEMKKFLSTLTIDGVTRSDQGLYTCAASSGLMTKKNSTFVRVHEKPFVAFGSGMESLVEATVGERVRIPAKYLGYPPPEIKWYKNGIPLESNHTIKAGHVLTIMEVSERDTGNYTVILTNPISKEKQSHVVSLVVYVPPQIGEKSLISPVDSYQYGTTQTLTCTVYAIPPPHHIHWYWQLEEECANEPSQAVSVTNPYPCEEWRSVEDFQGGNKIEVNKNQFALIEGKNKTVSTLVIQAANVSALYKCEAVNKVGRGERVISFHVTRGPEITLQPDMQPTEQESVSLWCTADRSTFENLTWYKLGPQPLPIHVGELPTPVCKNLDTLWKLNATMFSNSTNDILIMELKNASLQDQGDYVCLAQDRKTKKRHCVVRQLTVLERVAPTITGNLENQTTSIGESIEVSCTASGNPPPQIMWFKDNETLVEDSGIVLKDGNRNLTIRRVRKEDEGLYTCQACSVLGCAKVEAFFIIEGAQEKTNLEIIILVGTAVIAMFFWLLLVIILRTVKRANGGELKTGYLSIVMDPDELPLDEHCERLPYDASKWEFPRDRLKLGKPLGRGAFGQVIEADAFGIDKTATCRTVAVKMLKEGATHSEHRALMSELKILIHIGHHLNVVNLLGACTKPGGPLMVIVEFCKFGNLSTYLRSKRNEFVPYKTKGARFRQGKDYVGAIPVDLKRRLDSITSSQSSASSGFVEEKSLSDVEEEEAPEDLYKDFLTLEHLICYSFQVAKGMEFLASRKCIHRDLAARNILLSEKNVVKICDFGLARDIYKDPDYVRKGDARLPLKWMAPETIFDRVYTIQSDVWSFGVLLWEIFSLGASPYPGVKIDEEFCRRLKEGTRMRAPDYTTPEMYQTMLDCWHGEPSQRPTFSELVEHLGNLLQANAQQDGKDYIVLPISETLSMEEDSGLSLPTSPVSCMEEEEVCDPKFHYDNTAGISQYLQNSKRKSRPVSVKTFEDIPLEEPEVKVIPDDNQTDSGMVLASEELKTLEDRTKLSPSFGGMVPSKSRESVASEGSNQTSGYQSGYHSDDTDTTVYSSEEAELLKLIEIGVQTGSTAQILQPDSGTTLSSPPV

As usually defined, the IC50 is the concentration that gives 50% inhibition. Low readings indicate greater potency, high ones weaker potency. In experiment [1], `CCCNC(=O)Nc1ccc(Oc2ncnc3cc(OCCCSc4nnnn4C)c(OC)cc23)cc1Cl` [Example 134, N-{2-Chloro-4-[(6-methoxy-7-{3-[(1-methyl-1H-1,2,3,4-tetrazol-5-yl)thio]propoxy}-4-quinazolinyl)-oxy]phenyl}-N′-propylurea] showed an IC50 of 5 nM. Also, the inhibition in vivo at 20 mg/kg in experiment [2] amounted to 29%.
The like results for `COc1ccccc1NC(=O)Nc1ccc(Oc2ncnc3cc(OC)c(OC)cc23)c(C)c1` [Example 101, N-{4-[(6,7-Dimethoxy-4-quinazolinyl)oxy]-3-methylphenyl}-N′-(2-methoxyphenyl)urea] were, in that order, 3 nM and 44%.
The like results for `COc1cc2c(Oc3ccc(NC(=O)N(C)C)c(Cl)c3)ncnc2cc1OCCCN1CCN(C)CC1` [Example 182, N′-[2-Chloro-4-({6-methoxy-7-[3-(4-methylpiperazino)propoxy]-4-quinazolinyl}oxy)phenyl]-N,N-dimethylurea] were, in that order, > 1000 nM and 31%.
The like results for `CCCNC(=O)Nc1ccc(Oc2ncnc3cc(OCCCN4CCCCC4)c(OC)cc23)cc1Cl` [Example 135, N-(2-chloro-4-{[6-methoxy-7-(3-piperidinopropoxy)-4-quinazolinyl]oxy}phenyl)-N′-propylurea] were, in that order, 1 nM and 62%.
The molecule `CCCNC(=O)Nc1ccc(Oc2ccnc3cc(OCCCN(CCO)CCO)c(OC)cc23)cc1Cl` [Example 156, N-{2-Chloro-4-[(7-{3-[di(2-hydroxyethyl)-amino]propoxy}-6-methoxy-4-guinolyl)oxy]phenyl}-N′-propylurea] had an IC50 in experiment [1] of 0.8 nM. In experiment [2], the inhibition in vivo at 20 mg/kg was 24%.
The like results for `CCCNC(=O)Nc1ccc(Oc2ccnc3cc(OCCN(C)CCO)c(OC)cc23)cc1Cl` [Example 150, N-{2-Chloro-4-[(7-{2-[(2-hydroxyethyl)-(methyl)amino]ethoxy}-6-methoxy-4-guinolyl)oxy]phenyl}-N′-propylurea] were, in that order, 1.8 nM and 22%.
As for `COc1cc2c(Oc3ccc(NC(=O)Nc4ccc(F)cc4F)c(Cl)c3)ncnc2cc1OCCCN1CCN(C)CC1` [Example 164, N-[2-chloro-4-(6-methoxy-7-{[3-(4-methylpiperazino)propoxy]-4-quinazolinyl}oxy)phenyl]-N′-(2,4-difluorophenyl)urea], inhibition in experiment [1] was half-maximal at 0.9 nM (IC50). Also, in experiment [2], the “TGIR, % (tumor growth inhibition rate)” value came out at 55%.
For the molecule `CCCNC(=O)Nc1ccc(Oc2ncnc3cc(OCCN4CCOCC4)c(OC)cc23)cc1Cl` [Example 120, N-(2-Chloro-4-{[6-methoxy-7-(2-morpholinoethoxy)-4-quinazolinyl]oxy}phenyl)-N′-propylurea], inhibition in experiment [1] was half-maximal at 3.9 nM (IC50). Further, the inhibition in vivo at 20 mg/kg in experiment [2] was found to be 30%.
`CCCNC(=O)Nc1ccc(Oc2ncnc3cc(OCCCCN4CCOCC4)c(OC)cc23)cc1Cl` [Example 127, N-(2-Chloro-4-{[6-methoxy-7-(4-morpholinobutoxy)-4-quinazolinyl]oxy}phenyl)-N′-propylurea] gave an IC50 in experiment [1] of 1.1 nM. Besides, the inhibition in vivo at 20 mg/kg in experiment [2] came to 25%.
Regarding `CCCN(CC)C(=O)Nc1ccc(Oc2ncnc3cc(OC)c(OC)cc23)cc1Cl` [Example 112, N′-{2-Chloro-4-[(6,7-dimethoxy-4-quinazolinyl)oxy]phenyl}-N-ethyl-N-propylurea], in experiment [1], the IC50 is > 1000 nM. Further, the inhibition in vivo at 20 mg/kg in experiment [2] came out at 81%.
As for `CCCNC(=O)Nc1ccc(Oc2ccnc3cc(OCc4cccnc4)c(OC)cc23)cc1Cl` [Example 142, N-(2-chloro-4-{[6-methoxy-7-(3-pyridylmethoxy)-4-quinolyl]oxy}phenyl)-N′-propylurea], inhibition in experiment [1] was half-maximal at 2.6 nM (IC50). In addition, in experiment [2], the inhibition in vivo at 20 mg/kg turned out to be 48%.
The corresponding values for `COc1cc2c(Oc3ccc(NC(=O)Nc4ccc(F)cc4F)c(Cl)c3)ncnc2cc1OCCN1CCOCC1` [Example 162, N-(2-chloro-4-{[6-methoxy-7-(2-morpholinoethoxy)-4-quinazolinyl]oxy}phenyl)-N′-(2,4-difluorophenyl)urea] are 1 nM and 40%.
Take `CCCNC(=O)Nc1ccc(Oc2ccnc3cc(OCCCCn4ccnc4)c(OC)cc23)cc1Cl` [Example 160, N-[2-chloro-4-(7-{[4-(1H-1-imidazolyl)-butoxy]-6-methoxy-4-quinolyl}oxy)phenyl]-N′-propylurea]: 0.9 nM corresponded to half-maximal inhibition in experiment [1] (IC50). The “TGIR, % (tumor growth inhibition rate)” value in experiment [2] came to 43%.
Molecule `CCCNC(=O)Nc1ccc(Oc2ccnc3cc(OCCCN(C)CCO)c(OC)cc23)cc1Cl` [Example 157, N-{2-chloro-4-[(7-{3-[(2-hydroxyethyl)-(methyl)amino]propoxy}-6-methoxy-4-quinolyl)oxy]-phenyl}-N′-propylurea] registered a half-maximal inhibitory concentration (IC50) in experiment [1] of 0.4 nM. In addition, in experiment [2], the inhibition in vivo at 20 mg/kg was 44%.
The like results for `CCCNC(=O)Nc1ccc(Oc2ncnc3cc(OCCCCCN4CCOCC4)c(OC)cc23)cc1Cl` [Example 124, N-[2-Chloro-4-({6-methoxy-7-[(5-morpholinopentyl)oxy]-4-quinazolinyl}oxy)phenyl]-N′-propylurea] were, in that order, 1.9 nM and 27%.
The like results for `CCN(CC)C(=O)Nc1ccc(Oc2ncnc3cc(OCCn4ccnn4)c(OC)cc23)cc1Cl` [Example 131, N′-[2-Chloro-4-({6-methoxy-7-[2-(1H-1,2,3-triazol-1-yl)ethoxy]-4-quinazolinyl}oxy)phenyl]-N,N-diethylurea] were, in that order, > 1000 nM and 31%.
The corresponding values for `CCCNC(=O)Nc1ccc(Oc2ccnc3cc(OCCCN4CCOCC4)c(OC)cc23)cc1Cl` [Example 151, N-(2-chloro-4-{[6-methoxy-7-(3-morpholinopropoxy)-4-quinolyl]oxy}phenyl)-N′-propylurea] are 0.5 nM and 44%.
For the molecule `CCCNC(=O)Nc1ccc(Oc2ncnc3cc(OC)c(OCCCN4CCOCC4)cc23)cc1Cl` [Example 139, N-(2-Chloro-4-{[7-methoxy-6-(3-morpholinopropoxy)-4-quinazolinyl]oxy}phenyl)-N′-propylurea], half-maximal inhibition in experiment [1] (IC50) required 15 nM. Besides, the inhibition in vivo at 20 mg/kg in experiment [2] was 27%.
The like results for `COc1cc2c(Oc3ccc(NC(=O)N(C)C)c(Cl)c3)ncnc2cc1OCCCN(C)CCO` [Example 183, N′-{2-Chloro-4-[(7-{3-[(2-hydroxyethyl)-(methyl)amino]propoxy}-6-methoxy-4-quinazolinyl)oxy]-phenyl}-N,N-dimethylurea] were, in that order, > 1000 nM and 22%.
The corresponding values for `CCCNC(=O)Nc1ccc(Oc2ncnc3cc(OC)c(OCCCN(C)CCO)cc23)cc1Cl` [Example 140] are 36 nM and 21%.
The like results for `COc1cc2c(Oc3ccc(NC(=O)Nc4ccc(F)cc4F)c(Cl)c3)ccnc2cc1OCc1ccncc1` [Example 186, N-(2-chloro-4-{[6-methoxy-7-(4-pyridylmethoxy)-4-quinolyl]oxy}phenyl)-N′-(2,4-difluorophenyl)urea] were, in that order, 6.3 nM and 47%.

(Values after patent US7169789B2 (Kirin Beer Kabushiki Kaisha, priority 1999, dated 2007).)
